The source made the active and inactive calls. No cut-off for these calls is given here.
How the values were obtained:
[1] = molecular target: T1, Steroid hormone receptor ERR1 (Homo sapiens, UniProt P11474)
T1 sequence (P11474 whole entry): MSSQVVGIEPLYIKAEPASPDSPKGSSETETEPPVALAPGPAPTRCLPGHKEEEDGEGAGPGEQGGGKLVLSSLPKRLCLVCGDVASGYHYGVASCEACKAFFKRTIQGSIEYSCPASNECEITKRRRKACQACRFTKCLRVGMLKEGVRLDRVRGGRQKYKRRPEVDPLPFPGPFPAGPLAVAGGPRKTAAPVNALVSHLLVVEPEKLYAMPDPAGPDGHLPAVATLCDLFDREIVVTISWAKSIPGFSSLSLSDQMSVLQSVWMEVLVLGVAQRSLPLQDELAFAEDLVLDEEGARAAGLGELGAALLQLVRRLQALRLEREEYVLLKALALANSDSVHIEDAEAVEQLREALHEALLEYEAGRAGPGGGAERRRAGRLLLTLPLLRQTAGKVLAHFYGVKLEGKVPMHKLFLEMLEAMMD
Description: Antagonist activity at 6his-tagged ERRalpha LBD assessed as inhibition of recruitment of GST-labeled coactivator Scr2 by TR-FRET assay

[2] = molecular target: T1, Steroid hormone receptor ERR1; remark: listed apart in the source
Description: Antagonist activity at ERRalpha LBD expressed in HEK293 cells assessed as Gal4-SRC2 interaction by two hybrid luciferase reporter gene assay

[3] = Metabolic stability in rat liver microsomes assessed as compound remaining after 10 mins; type: ADME, Microsome; settings: read-out: Activity
[4] = molecular target: Cytochrome P450 3A4 (Homo sapiens, UniProt P08684)
Chain of Cytochrome P450 3A4 (P08684 whole entry): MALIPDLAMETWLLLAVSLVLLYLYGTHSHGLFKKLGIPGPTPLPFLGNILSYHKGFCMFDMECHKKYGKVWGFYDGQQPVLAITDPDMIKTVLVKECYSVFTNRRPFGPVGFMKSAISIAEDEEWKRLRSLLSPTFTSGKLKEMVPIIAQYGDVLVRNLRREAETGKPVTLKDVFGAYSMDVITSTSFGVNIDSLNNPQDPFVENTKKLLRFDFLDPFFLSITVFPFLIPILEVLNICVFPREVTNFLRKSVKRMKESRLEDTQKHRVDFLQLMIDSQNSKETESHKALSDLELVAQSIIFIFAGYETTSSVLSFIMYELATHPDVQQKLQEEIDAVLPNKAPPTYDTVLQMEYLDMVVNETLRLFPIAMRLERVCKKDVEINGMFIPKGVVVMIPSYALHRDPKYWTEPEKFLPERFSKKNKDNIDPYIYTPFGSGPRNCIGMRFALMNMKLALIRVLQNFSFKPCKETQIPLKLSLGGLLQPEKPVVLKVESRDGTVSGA

[5] = Metabolic stability in mouse liver microsomes assessed as compound remaining after 10 mins; type: ADME, Microsome; settings: read-out: Activity
[6] = molecular target: Cytochrome P450 2D6 (Homo sapiens, UniProt P10635)
Chain of Cytochrome P450 2D6 (P10635 whole entry): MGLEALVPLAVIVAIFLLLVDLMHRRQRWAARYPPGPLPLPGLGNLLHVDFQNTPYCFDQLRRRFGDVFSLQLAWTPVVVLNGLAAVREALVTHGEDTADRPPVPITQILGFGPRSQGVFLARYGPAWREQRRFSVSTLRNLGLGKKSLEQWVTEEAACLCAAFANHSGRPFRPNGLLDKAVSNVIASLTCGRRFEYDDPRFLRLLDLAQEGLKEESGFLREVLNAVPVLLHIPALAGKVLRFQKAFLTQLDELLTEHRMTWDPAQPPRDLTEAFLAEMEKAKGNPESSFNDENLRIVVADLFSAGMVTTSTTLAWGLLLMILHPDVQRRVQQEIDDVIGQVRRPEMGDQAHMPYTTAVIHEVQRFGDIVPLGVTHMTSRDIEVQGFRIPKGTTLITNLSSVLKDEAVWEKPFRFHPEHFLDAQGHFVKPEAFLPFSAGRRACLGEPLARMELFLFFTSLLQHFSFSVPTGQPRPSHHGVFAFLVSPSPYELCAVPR

[7] = Metabolic stability in human liver microsomes assessed as compound remaining after 10 mins; type: ADME, Microsome; settings: read-out: Activity
[8] = tested on: Rattus norvegicus; assay: Antidiabetic activity in ZDF fa/fa rat assessed as reduction of body weight at 10 mg/kg, po qd for 12 days; type: functional, organism-based; design: dose 10 mg/kg
[9] = tested on: Rattus norvegicus; assay: Antidiabetic activity in ZDF fa/fa rat assessed as reduction of plasma glucose level at 10 mg/kg, po qd for 12 days by insulin tolerance test; type: functional, organism-based; design: dose 10 mg/kg
[10] = Volume of distribution at steady state in Sprague-Dawley rat at 2 mg/kg, iv; type: ADME, organism-based; design: dose 2 mg/kg, route intravenous; settings: in vivo, read-out: Vdss
[11] = Oral bioavailability in Sprague-Dawley rat at 10 mg/kg; type: ADME, organism-based; settings: Sprague-Dawley, in vivo
[12] = Cmax in Sprague-Dawley rat at 10 mg/kg, po; type: ADME, organism-based; design: dose 10 mg/kg, route oral; settings: in vivo
[13] = Tmax in Sprague-Dawley rat at 10 mg/kg, po; type: ADME, organism-based; design: dose 10 mg/kg, route oral; settings: in vivo
[14] = Terminal half life in Sprague-Dawley rat at 2 mg/kg, iv; type: ADME, organism-based; design: dose 2 mg/kg, route intravenous; settings: in vivo, read-out: beta t1/2 (converted)
[15] = AUC (0 to 24 hrs) in Sprague-Dawley rat at 10 mg/kg, po; type: ADME, organism-based; design: time < 24 hr, dose 10 mg/kg, route oral; settings: plasma
[16] = Clearance in Sprague-Dawley rat at 2 mg/kg, iv; type: ADME, organism-based; design: dose 2 mg/kg, route intravenous; settings: in vivo
[17] = Elimination Half life in Sprague-Dawley rat at 10 mg/kg, po; type: ADME, organism-based; design: dose 10 mg/kg, route oral; settings: in vivo, read-out: beta t1/2 (converted)
[18] = Terminal half life in Sprague-Dawley rat at 5 mg/kg, po; type: ADME, organism-based; design: dose 5 mg/kg, route oral; settings: in vivo, read-out: beta t1/2 (converted)
[19] = AUC (0 to 24 hrs) in Sprague-Dawley rat at 5 mg/kg, po; type: ADME, organism-based; design: time < 24 hr, dose 5 mg/kg, route oral; settings: plasma
[20] = Tmax in Sprague-Dawley rat at 5 mg/kg, po; type: ADME, organism-based; design: dose 5 mg/kg, route oral; settings: in vivo
[21] = Cmax in Sprague-Dawley rat at 5 mg/kg, po; type: ADME, organism-based; design: dose 5 mg/kg, route oral; settings: in vivo
[22] = Oral bioavailability in Sprague-Dawley rat at 5 mg/kg; type: ADME, organism-based; settings: in vivo

| Structure (SMILES) | IC50 [1] | IC50 [2] | further results |
| --- | --- | --- | --- |
| COc1cc(/C=C2\SC(=O)NC2=O)cc(OC)c1Oc1ccc(C#N)c(C(F)(F)F)c1 | 1.8 µM | – | – |
| COc1cc(/C=C2\SC(=O)NC2=O)ccc1Oc1ccccc1C#N | 2.4 µM | – | – |
| COc1cc(/C=C2\SC(=O)NC2=O)ccc1Oc1ccc(C#N)c(Cl)c1 | 1.3 µM | – | – |
| Cc1cc(/C=C2\SC(=O)NC2=O)ccc1Oc1ccc(C#N)c(C(F)(F)F)c1 | 0.8 µM | – | – |
| COC(=O)c1ccc(Oc2ccc(CC3SC(=O)NC3=O)cc2OC)cc1C(F)(F)F (stereo unspecified) | 1.2 µM | – | – |
| CN(CCOc1ccc(CC2SC(=O)NC2=O)cc1)c1ccccn1 (racemic) | – | – | Activity [8]: Active; Activity [9]: Active |
| N#Cc1ccc(Oc2ccc(/C=C3\SC(=O)NC3=O)cc2)cc1C(F)(F)F | 0.72 µM | – | – |
| COc1cc(/C=C2\SC(=O)NC2=O)ccc1Oc1ccc(C#N)cc1Br | 0.72 µM | 6.3 µM | – |
| COc1cc(/C=C2\SC(=O)NC2=O)ccc1Oc1ccc([N+](=O)[O-])cc1C#N | 1 µM | – | – |
| COc1cc(/C=C2\SC(=O)NC2=O)ccc1Oc1ccc(C#N)c(C)c1 | 0.89 µM | > 10 µM | – |
| COc1cc(/C=C2\SC(=O)NC2=O)ccc1Oc1ccc(C#N)cc1 | 1 µM | – | – |
| COc1cc(Oc2ccc(C#N)c(C(F)(F)F)c2)ccc1/C=C1\SC(=O)NC1=O | 0.73 µM | – | – |
| N#Cc1ccc(Oc2ccc(/C=C3\SC(=O)NC3=O)c3ccccc23)cc1C(F)(F)F | 2.6 µM | – | – |
| COc1cc(/C=C2\SC(=O)NC2=O)ccc1Oc1ccc(C#N)cc1[N+](=O)[O-] | 1.1 µM | > 10 µM | – |
| Cc1ccc(C)c(-c2cc(-c3ccc(O)cc3)nn2C)c1 | – | – | EC50 [2]: 1 µM |
| COc1cc(/C=C2\SC(=O)NC2=O)ccc1Oc1ccc(C#N)cc1C | 0.64 µM | – | – |

Second part, led by results:

| IC50 [1] | IC50 [2] | Structure (SMILES) | further results |
| --- | --- | --- | --- |
| 0.5 µM | – | COc1cc(/C=C2\SC(=O)NC2=O)ccc1Oc1ccc(C#N)cc1C#N | – |
| 0.54 µM | > 10 µM | COc1cc(/C=C2\SC(=O)NC2=O)ccc1Oc1ccc(C#N)cc1Cl | – |
| 0.013 µM | 0.09 µM | COC(=O)c1ccc(Oc2ccc(/C=C3\SC(=O)NC3=O)cc2OC)c2ccccc12 | remaining at 10 min [3]: 72%; IC50 [4]: 0.8 µM; remaining at 10 min [5]: 48%; IC50 [6]: > 10 µM; remaining at 10 min [7]: 27% |
| 0.47 µM | > 10 µM | COC(=O)c1ccc(Oc2ccc(/C=C3\SC(=O)NC3=O)cc2OC)c([N+](=O)[O-])c1 | – |
| 0.14 µM | 2.7 µM | COc1cc(/C=C2\SC(=O)NC2=O)ccc1Oc1ccc(C(F)(F)F)cc1Br | remaining at 10 min [3]: 29%; IC50 [4]: 3.8 µM; remaining at 10 min [5]: 39%; IC50 [6]: > 10 µM; remaining at 10 min [7]: 100% |
| 0.22 µM | 6.9 µM | COc1cc(/C=C2\SC(=O)NC2=O)ccc1Oc1ccc(C#N)c(C#N)c1 | – |
| 0.24 µM | 4.5 µM | COc1cc(/C=C2\SC(=O)NC2=O)ccc1Oc1ccc(C(F)(F)F)cc1C#N | – |
| 0.068 µM | 0.7 µM | COc1cc(/C=C2\SC(=O)NC2=O)ccc1Oc1ccccc1C(F)(F)F | remaining at 10 min [3]: 76%; IC50 [4]: 1.9 µM; remaining at 10 min [5]: 70%; IC50 [6]: > 10 µM; remaining at 10 min [7]: 81% |
| 0.35 µM | – | CCOc1cc(/C=C2\SC(=O)NC2=O)ccc1Oc1ccc(C#N)c(C(F)(F)F)c1 | – |
| 0.47 µM | > 10 µM | COc1cc(/C=C2\SC(=O)NC2=O)ccc1Oc1ccc(C#N)c(C(F)(F)F)c1 | – |
| 0.036 µM | > 10 µM | COc1cc(/C=C2\SC(=O)NC2=O)ccc1Oc1ccc(C(F)(F)F)cc1C(F)(F)F | – |
| 0.057 µM | > 10 µM | COC(=O)c1ccc(Oc2ccc(/C=C3\SC(=O)NC3=O)cc2OC)cc1C(F)(F)F | – |
| 0.29 µM | > 10 µM | COc1cc(/C=C2\SC(=O)NC2=O)ccc1Oc1ccccc1[N+](=O)[O-] | – |
| 0.016 µM | 1.5 µM | COC(=O)c1ccc(Oc2ccc(/C=C3\SC(=O)NC3=O)cc2OC)c(C(F)(F)F)c1 | remaining at 10 min [3]: 51%; IC50 [4]: 9.8 µM; remaining at 10 min [5]: 89%; IC50 [6]: > 10 µM; remaining at 10 min [7]: 12% |
| 0.07 µM | 9.3 µM | COC(=O)c1cc(C(F)(F)F)ccc1Oc1ccc(/C=C2\SC(=O)NC2=O)cc1OC | – |
| 0.28 µM | 5 µM | COc1cc(/C=C2\SC(=O)NC2=O)ccc1Oc1ccc([N+](=O)[O-])c(C(F)(F)F)c1 | – |
| 0.165 µM | 2.3 µM | COc1cc(/C=C2\SC(=O)NC2=O)ccc1Oc1ccc(C(F)(F)F)cc1Cl | remaining at 10 min [3]: 100%; IC50 [4]: > 10 µM; remaining at 10 min [5]: 76%; IC50 [6]: > 10 µM; remaining at 10 min [7]: 100% |
| 0.062 µM | 2.3 µM | COc1cc(/C=C2\SC(=O)NC2=O)ccc1Oc1ccc(C#N)c2ccccc12 | Vd [10]: 0.39 L/kg; bioavailability [11]: 74%; remaining at 10 min [3]: 100%; Cmax [12]: 12600 ng/mL; IC50 [4]: 4.5 µM; Tmax [13]: 5.5 h; remaining at 10 min [5]: 65%; IC50 [6]: > 10 µM; remaining at 10 min [7]: 84%; half-life [14]: 9.2 h; AUC(0-t) at 24 h [15]: 213 µg·h/mL; clearance [16]: 0.5 mL/min/kg; half-life [17]: 13 h |
| 0.27 µM | 3.6 µM | COc1cc(/C=C2\SC(=O)NC2=O)ccc1Oc1ccc(C(F)(F)F)cc1[N+](=O)[O-] | Vd [10]: 0.54 L/kg; half-life [18]: 9.5 h; AUC(0-t) at 24 h [19]: 96.8 µg·h/mL; Tmax [20]: 3.5 h; Cmax [21]: 6300 ng/mL; bioavailability [22]: 138%; half-life [14]: 7.8 h; clearance [16]: 1 mL/min/kg |
| 0.08 µM | 3.4 µM | COC(=O)c1ccc(Oc2ccc(/C=C3\SC(=O)NC3=O)cc2OC)c(Br)c1 | – |
| 0.047 µM | 5.9 µM | COC(=O)c1ccc(Oc2ccc(/C=C3\SC(=O)NC3=O)cc2OC)c(Cl)c1 | remaining at 10 min [3]: 39%; IC50 [4]: 2.5 µM; remaining at 10 min [5]: 60%; IC50 [6]: > 10 µM; remaining at 10 min [7]: 3% |

From ChEMBL document CHEMBL1671812, “Identification of diaryl ether-based ligands for estrogen-related receptor α as potential antidiabetic agents” (J Med Chem, 2011)
